Results on two compounds are retold here after EP2703003A1, “A pomegranate extract and compositions containing pomegranate polyphenols for treating or preventing diseases or physiopathological conditions associated with an excessive gene expression and/or physiological activity of interleukin-6” (Probelte Biotecnologia S.L., priority 2012, dated 2014).

Where two headings read alike, the source gives them in different places.

For data set [1] the following is noted: side effect, background statement; cited from earlier work.
In data set [2] the test system is dermal papilla hair follicle cells. To be noted: 24 hours, 270 picog/mL at dose 0. The procedure: In another independent study, in vitro cultures of dermal papilla hair follicle cells grown using DMEM as a culture medium were seeded at a density of 1.5 x 10^5 cells per 50 mm of plate surface and incubated overnight. Then 3 consecutive washes with PBS were performed and DMEM culture medium supplemented with variables amounts of DHT was added to each of the cultures; specifically three doses were tested: 0, 25 and 100 nanoM. The culture medium was sampled after 24 hours to measure the concentration of interleukin-6 by means of ELISA.

For the compound `Nc1cc(N2CCCCC2)nc(N)[n+]1[O-]` [Minoxidil], the itchy scalp in data set [1] is 1.5 % of patients.

On to `C[C@]12CCC(=O)C[C@@H]1CC[C@@H]1[C@@H]2CC[C@]2(C)[C@@H](O)CC[C@@H]12` [DHT, 5-dihydrotestosterone], for which the “mean concentration of interleukin-6 in the culture media” value in data set [2] (25 nanoM) came to 1270 picog/mL; in data set [2] (100 nanoM) it was 2190 picog/mL.
